Common to all, as to type: cell-based
In assay [1] the target is T1, M1 muscarinic receptor (Homo sapiens, UniProt P11229).
T1 construct: expressed in transfected cells; host or cells: CHO (M1-CHO)
T1 sequence (P11229 1-460): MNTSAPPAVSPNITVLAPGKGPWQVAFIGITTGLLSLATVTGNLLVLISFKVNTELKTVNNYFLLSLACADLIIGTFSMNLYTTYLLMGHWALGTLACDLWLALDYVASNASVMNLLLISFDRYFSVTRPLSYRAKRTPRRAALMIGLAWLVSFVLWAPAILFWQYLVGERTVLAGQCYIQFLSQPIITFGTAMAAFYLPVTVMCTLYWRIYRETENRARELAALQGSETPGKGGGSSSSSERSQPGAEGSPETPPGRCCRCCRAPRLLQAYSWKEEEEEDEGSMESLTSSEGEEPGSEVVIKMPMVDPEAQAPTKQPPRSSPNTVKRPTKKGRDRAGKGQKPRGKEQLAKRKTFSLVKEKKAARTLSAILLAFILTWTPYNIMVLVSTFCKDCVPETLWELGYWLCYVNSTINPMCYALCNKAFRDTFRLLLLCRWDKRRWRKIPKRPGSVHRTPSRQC
Description: Functional mobilization of intracellular calcium (FLIPR), M1-CHO cells. The conditions noted are these: for Emax: 100% efficacy is the maximum response obtained with the Carbachol control; for M1 Activity: M1-CHO cells, calcium mobilization (FLIPR). Put shortly:
(§1)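 FLIPR fluorescence (ex 488, em 540 nm) recorded 60 sec after compound addition to dye-loaded CHO cells. Agonist mode: compound alone. Antagonist mode: 15 min compound pre-incubation, then carbachol at EC80, or co-application. Efficacy expressed as % of maximal carbachol response.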
On the technique in general: Calcium flux is commonly read through the fluorescence of an indicator in the cells.

Assay [2] has as its target T2, M2 muscarinic receptor (Homo sapiens, UniProt P08172).
T2 construct: expressed in transfected cells; host or cells: CHO (M2-CHO)
T2 sequence (P08172 1-466): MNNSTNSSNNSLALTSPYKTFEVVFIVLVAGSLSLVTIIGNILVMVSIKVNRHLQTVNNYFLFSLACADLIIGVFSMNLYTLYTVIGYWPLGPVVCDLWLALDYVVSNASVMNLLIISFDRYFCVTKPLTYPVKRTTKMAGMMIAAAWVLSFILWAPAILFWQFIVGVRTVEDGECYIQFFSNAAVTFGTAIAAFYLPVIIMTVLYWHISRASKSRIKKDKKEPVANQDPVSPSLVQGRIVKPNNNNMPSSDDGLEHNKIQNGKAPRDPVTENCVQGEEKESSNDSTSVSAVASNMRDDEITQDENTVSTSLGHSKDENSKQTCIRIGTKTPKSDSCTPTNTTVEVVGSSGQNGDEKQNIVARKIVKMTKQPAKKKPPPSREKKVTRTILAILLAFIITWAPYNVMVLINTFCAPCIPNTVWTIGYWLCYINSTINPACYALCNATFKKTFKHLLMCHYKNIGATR
Description: Functional mobilization of intracellular calcium (FLIPR), M2-CHO cells. The conditions noted are these: for Emax: 100% efficacy is the maximum response obtained with the Carbachol control; for M2 Activity: M2-CHO cells, calcium mobilization (FLIPR). Put shortly:
as §1

The target in assay [3] is T3, M3 muscarinic receptor (Homo sapiens, UniProt P20309).
T3 construct: expressed in transfected cells; host or cells: CHO (M3-CHO)
T3 sequence (P20309 whole entry): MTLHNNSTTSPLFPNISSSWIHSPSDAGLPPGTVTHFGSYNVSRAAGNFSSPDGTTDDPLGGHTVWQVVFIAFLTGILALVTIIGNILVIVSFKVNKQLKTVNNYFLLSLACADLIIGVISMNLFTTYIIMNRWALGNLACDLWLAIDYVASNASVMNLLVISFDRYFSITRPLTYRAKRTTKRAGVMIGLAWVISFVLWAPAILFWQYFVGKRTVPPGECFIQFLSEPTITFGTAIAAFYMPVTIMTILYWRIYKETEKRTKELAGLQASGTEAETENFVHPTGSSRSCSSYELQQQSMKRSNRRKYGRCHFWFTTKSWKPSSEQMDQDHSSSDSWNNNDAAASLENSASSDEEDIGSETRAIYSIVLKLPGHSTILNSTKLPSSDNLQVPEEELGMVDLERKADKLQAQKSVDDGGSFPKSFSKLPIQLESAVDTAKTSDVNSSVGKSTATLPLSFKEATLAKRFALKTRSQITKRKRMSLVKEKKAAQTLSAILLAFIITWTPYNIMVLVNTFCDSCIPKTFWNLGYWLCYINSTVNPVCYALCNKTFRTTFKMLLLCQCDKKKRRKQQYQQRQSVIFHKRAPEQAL
Description: Functional mobilization of intracellular calcium (FLIPR), M3-CHO cells. Particulars: for Emax: 100% efficacy is the maximum response obtained with the Carbachol control; for M3 Activity: M3-CHO cells, calcium mobilization (FLIPR). The procedure, abridged:
as §1

Assay [4] addresses T4, M4 muscarinic receptor (Homo sapiens, UniProt P08173).
T4 construct: expressed in transfected cells; host or cells: CHO (M4-CHO)
T4 sequence (P08173 1-479): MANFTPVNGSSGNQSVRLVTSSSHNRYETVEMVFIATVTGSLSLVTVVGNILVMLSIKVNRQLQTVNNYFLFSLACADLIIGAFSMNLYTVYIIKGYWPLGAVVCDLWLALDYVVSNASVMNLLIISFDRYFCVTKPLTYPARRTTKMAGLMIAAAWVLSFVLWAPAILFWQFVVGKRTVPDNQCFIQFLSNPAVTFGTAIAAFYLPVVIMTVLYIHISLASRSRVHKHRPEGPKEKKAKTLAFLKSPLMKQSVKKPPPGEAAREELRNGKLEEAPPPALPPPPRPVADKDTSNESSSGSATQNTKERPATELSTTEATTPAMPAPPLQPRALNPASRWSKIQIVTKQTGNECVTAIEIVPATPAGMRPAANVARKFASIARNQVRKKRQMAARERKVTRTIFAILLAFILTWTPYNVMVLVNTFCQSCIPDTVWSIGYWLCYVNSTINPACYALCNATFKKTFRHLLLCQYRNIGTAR
Description: Functional mobilization of intracellular calcium (FLIPR), M4-CHO cells. Particulars: for Emax: 100% efficacy is the maximum response obtained with the Carbachol control; for M4 Activity: M4-CHO cells, calcium mobilization (FLIPR). The procedure, abridged: as §1

Bounds are passed on as bounds.

Here are results for five molecules from US7880007B2, “Bicyclic substituted phenyl piperidine modulators of muscarinic receptors” (Vertex Pharmaceuticals Incorporated, priority 2004, dated 2011).

One may read the Emax as the greatest response seen or fitted, relative to the assay's reference.

For the molecule `COc1ccc(Cl)cc1C1(F)CCN(CC2CCOCC2)CC1` [Compound 418], in assay [1], the Emax was less than 25% and the “M1 Activity” value was “++ (activity was measured to be from 1.0 μM to 5.0 μM)”. Further, in assay [2], the Emax was less than 25% and the “M2 Activity” value is “+ (activity was measured to be greater than 5.0 μM)”. Besides, in assay [3], the Emax is less than 25% and the “M3 Activity” value is recorded as “+ (activity was measured to be greater than 5.0 μM)”. In assay [4], the Emax was in the range of 25 to 100% and the “M4 Activity” value was “++ (activity was measured to be from 1.0 μM to 5.0 μM)”.

`COc1ccccc1-c1ccccc1C1CCN([C@H]2C[C@H]3CC[C@H]2C3)CC1` [Compound 420]: in assay [1], the Emax is 25 to 100% and the “M1 Activity” value is given as “+ (activity was measured to be greater than 5.0 μM)”. Further, in assay [2], the Emax was less than 25% and the “M2 Activity” value is given as “+ (activity was measured to be greater than 5.0 μM)”. Besides, in assay [3], the Emax was less than 25% and the “M3 Activity” value is “+ (activity was measured to be greater than 5.0 μM)”. In addition, in assay [4], the maximal response (Emax) was 25 to 100% and the “M4 Activity” value is given as “++ (activity was measured to be from 1.0 μM to 5.0 μM)”.

With `COc1ccccc1C(=O)COc1ccccc1C1CCN([C@H]2C[C@H]3CC[C@H]2C3)CC1` [Compound 422], in assay [1], the Emax lay in the range of 25 to 100% and the “M1 Activity” value is recorded as “++ (activity was measured to be from 1.0 μM to 5.0 μM)”. Also, in assay [2], the Emax was in the range of 25 to 100% and the “M2 Activity” value was “++ (activity was measured to be from 1.0 μM to 5.0 μM)”. In addition, in assay [3], the maximal effect (Emax) is less than 25% and the “M3 Activity” value was “+ (activity was measured to be greater than 5.0 μM)”. Also, in assay [4], the Emax was 25 to 100% and the “M4 Activity” value is given as “+++ (activity was measured to be less than 1.0 μM)”.

For `COc1ccc(-c2ccc(C)cc2)cc1C1CCN([C@H]2C[C@H]3CC[C@H]2C3)CC1` [Compound 423], in assay [1], the maximum response (Emax) is less than 25% and the “M1 Activity” value is given as “+ (activity was measured to be greater than 5.0 μM)”. Also, in assay [2], the Emax was less than 25% and the “M2 Activity” value is listed as “+ (activity was measured to be greater than 5.0 μM)”. In assay [3], the Emax is less than 25% and the “M3 Activity” value was “+ (activity was measured to be greater than 5.0 μM)”. Moreover, in assay [4], the Emax was 25 to 100% and the “M4 Activity” value is recorded as “+ (activity was measured to be greater than 5.0 μM)”.

`Cc1ccc(F)cc1C1CCN(CC2C[C@H]3CC[C@H]2C3)CC1` (stereo partly shown) [Compound 424]: in assay [1], the maximal response (Emax) lay within 25 to 100% and the “M1 Activity” value is recorded as “++ (activity was measured to be from 1.0 μM to 5.0 μM)”. In assay [2], the maximal response (Emax) was in the range of 25 to 100% and the “M2 Activity” value is recorded as “++ (activity was measured to be from 1.0 μM to 5.0 μM)”. In addition, in assay [3], the Emax is less than 25% and the “M3 Activity” value was “+ (activity was measured to be greater than 5.0 μM)”. For the same molecule, in assay [4], the Emax fell in the range of 25 to 100% and the “M4 Activity” value is recorded as “+++ (activity was measured to be less than 1.0 μM)”.
